IC50 data for 13 compounds are collected here from patent publication US11739098B2 (BRISTOL-MYERS SQUIBB COMPANY, priority 2017, dated 2023).

Holding throughout (format): cell-based
One test deals with T1, human TLR7 (Homo sapiens, UniProt Q9NYK1).
T1 construct: host or cells: HEK-Blue cells (HEK293-derived reporter line)
T1 sequence (Q9NYK1 27-1049): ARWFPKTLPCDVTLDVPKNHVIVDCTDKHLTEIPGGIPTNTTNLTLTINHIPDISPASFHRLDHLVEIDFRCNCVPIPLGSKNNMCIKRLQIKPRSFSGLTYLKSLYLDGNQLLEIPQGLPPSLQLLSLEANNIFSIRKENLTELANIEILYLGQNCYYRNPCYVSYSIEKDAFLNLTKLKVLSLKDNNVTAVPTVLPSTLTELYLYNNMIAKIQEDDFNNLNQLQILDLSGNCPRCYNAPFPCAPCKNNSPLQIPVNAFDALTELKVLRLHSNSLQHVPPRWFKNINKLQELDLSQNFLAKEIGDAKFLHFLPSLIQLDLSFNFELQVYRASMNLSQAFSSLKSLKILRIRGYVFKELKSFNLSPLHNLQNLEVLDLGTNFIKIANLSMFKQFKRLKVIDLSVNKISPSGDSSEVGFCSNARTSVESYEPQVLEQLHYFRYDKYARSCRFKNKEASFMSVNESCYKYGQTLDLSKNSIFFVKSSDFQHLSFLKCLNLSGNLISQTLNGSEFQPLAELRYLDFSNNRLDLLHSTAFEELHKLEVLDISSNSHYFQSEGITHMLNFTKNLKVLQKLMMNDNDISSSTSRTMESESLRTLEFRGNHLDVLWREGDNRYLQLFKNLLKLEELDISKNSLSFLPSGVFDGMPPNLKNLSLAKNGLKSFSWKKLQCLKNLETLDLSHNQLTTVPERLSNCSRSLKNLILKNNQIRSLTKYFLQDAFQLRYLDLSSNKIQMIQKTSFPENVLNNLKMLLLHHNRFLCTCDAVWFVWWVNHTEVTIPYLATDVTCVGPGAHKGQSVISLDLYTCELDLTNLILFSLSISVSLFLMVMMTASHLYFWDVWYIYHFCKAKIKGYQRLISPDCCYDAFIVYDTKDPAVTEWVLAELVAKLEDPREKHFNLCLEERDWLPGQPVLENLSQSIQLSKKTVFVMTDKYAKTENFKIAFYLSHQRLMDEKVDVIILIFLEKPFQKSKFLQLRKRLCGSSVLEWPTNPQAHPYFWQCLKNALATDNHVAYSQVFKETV
Put plainly: TLR7 inhibition reporter assay (HEK-Blue cells, SEAP reporter, gardiquimod stimulation). The conditions noted are these: HEK-Blue cells overexpressing human TLR7, SEAP reporter, gardiquimod 7.5 μM. Put shortly:
(§1)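 After 22 h at 37 °C, SEAP secretion was measured from human TLR7-, TLR8- or TLR9-expressing HEK-Blue reporter cells given compound (0.05 nM–50 μM) 30 min before agonist: 7.5 μM gardiquimod, 15.9 μM R848 or 5 nM ODN2006 respectively. Percent inhibition referenced to agonist-plus-DMSO and known-inhibitor wells.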

Another test has as its target T2, human TLR9 (Homo sapiens, UniProt Q9NR96).
T2 construct: host or cells: HEK-Blue cells (HEK293-derived reporter line)
T2 sequence (Q9NR96 26-1032): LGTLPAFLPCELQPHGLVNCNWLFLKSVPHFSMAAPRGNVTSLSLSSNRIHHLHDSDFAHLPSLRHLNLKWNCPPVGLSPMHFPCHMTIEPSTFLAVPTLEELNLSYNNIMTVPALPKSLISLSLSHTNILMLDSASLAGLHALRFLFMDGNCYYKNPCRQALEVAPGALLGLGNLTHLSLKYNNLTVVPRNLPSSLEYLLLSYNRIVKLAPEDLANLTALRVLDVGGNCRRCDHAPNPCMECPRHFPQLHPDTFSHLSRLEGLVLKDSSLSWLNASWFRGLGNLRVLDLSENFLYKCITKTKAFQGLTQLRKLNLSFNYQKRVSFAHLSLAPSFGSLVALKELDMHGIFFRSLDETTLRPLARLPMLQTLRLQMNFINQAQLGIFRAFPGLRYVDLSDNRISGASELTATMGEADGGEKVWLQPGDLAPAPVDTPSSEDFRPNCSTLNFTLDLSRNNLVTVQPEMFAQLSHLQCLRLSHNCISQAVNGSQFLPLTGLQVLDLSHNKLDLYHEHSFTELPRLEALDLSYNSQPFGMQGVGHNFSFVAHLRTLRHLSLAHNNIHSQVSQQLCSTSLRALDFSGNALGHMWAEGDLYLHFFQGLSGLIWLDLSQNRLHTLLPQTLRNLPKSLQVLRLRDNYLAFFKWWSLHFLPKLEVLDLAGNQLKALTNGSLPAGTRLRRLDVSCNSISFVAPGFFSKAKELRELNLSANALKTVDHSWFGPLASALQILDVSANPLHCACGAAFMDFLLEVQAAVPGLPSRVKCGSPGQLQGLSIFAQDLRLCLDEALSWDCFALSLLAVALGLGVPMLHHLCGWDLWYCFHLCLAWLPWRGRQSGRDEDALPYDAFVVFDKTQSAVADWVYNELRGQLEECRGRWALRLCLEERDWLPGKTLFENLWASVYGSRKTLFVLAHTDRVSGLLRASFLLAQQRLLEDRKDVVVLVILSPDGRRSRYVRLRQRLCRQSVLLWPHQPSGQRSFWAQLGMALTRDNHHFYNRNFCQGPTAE
Put plainly: TLR9 inhibition reporter assay (HEK-Blue cells, SEAP reporter, ODN2006 stimulation). The note with it: HEK-Blue cells overexpressing human TLR9, SEAP reporter, ODN2006 5 nM. In a few lines:
as §1

Another test has as its target T3, human TLR8 (Homo sapiens, UniProt Q9NR97).
T3 construct: host or cells: HEK-Blue cells (HEK293-derived reporter line)
T3 sequence (Q9NR97 27-1041): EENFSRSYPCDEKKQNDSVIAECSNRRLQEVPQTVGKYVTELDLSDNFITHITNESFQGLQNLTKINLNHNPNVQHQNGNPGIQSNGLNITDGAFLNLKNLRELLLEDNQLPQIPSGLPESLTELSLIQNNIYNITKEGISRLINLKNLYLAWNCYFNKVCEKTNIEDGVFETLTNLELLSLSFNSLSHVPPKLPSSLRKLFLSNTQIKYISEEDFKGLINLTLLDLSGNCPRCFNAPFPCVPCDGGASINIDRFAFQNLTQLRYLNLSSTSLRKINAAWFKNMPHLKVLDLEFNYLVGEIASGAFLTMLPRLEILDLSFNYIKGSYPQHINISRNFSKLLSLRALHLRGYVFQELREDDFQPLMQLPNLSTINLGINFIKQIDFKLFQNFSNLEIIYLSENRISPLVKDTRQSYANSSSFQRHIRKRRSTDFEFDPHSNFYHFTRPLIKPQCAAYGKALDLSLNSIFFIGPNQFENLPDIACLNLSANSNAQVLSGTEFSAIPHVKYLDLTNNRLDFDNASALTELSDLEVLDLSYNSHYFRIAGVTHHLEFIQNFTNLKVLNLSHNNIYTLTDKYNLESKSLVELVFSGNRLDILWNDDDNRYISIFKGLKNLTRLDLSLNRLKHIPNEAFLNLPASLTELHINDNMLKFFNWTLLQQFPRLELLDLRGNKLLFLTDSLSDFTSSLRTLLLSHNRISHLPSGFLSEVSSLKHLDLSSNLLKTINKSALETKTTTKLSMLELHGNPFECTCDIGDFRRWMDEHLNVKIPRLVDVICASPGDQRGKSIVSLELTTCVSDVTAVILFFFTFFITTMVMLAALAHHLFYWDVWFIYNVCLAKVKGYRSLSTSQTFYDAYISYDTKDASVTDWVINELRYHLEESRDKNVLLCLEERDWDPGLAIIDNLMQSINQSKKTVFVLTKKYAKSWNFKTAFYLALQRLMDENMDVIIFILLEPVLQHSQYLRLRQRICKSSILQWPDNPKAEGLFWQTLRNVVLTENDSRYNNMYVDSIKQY
Put plainly: TLR8 inhibition reporter assay (HEK-Blue cells, SEAP reporter, R848 stimulation). The conditions noted are these: HEK-Blue cells overexpressing human TLR8, SEAP reporter, R848 15.9 μM. In a few lines:
as §1
In general terms: A reporter such as luciferase makes a cellular process visible.

In general, IC50 refers to the concentration at which inhibition is half-maximal. Consider `CC(C)c1c(-c2cc(C(F)(F)F)c3nccn3c2)[nH]c2ccc(C3CCN(CC(=O)N(C)C)CC3)cc12` [Example 372, 2-(4-(3-isopropyl-2-(8-(trifluoromethyl)imidazo[1,2-a]pyridin-6-yl)-1H-indol-5-yl)piperidin-1-yl)-N,N-dimethylacetamide], for which the IC50 against human TLR7 is below 100 nM; on human TLR9 it was 1000 to 50000 nM; at human TLR8, below 100 nM.
With `CC(C)c1c(-c2cccn3ncnc23)[nH]c2ccc(C3CCN(CC(=O)N(C)C)CC3)cc12` [Example 362, 2-(4-(2-5 ([1,2,4]triazolo[1,5-a]pyridin-8-yl)-3-isopropyl-1H-indol-5-yl)piperidin-1-yl)-N,N-dimethylacetamide], the IC50 against human TLR7 lay in the range of 100 to 1000 nM; against human TLR9 it was 1000 to 50000 nM; at human TLR8, 100 to 1000 nM.
On to `CC(C)c1c(-c2ccnc3[nH]ncc23)[nH]c2ccc(C3CCN(Cc4cccnc4)CC3)cc12` [Example 907, 4-(3-isopropyl-5-(1-(pyridin-3-ylmethyl)piperidin-4-yl)-1H-indol-2-yl)-1H-pyrazolo[3,4-b]pyridine], for which the concentration for half-maximal inhibition (IC50) against human TLR7 is below 100 nM; at human TLR9, 1000 to 50000 nM; against human TLR8, below 100 nM.
For `CC(C)c1c(-c2cn(C)c3ncccc23)[nH]c2ccc(C3CCN(C4CCOCC4)CC3)cc12` [Example 694, 3-(3-isopropyl-5-(1-(tetrahydro-2H-pyran-4-yl)piperidin-4-yl)-1H-indol-2-yl)-1-methyl-1H-pyrrolo[2,3-b]pyridine], the IC50 against human TLR7 was below 100 nM; against human TLR9, 1000 to 50000 nM; against human TLR8 it was below 100 nM.
In the case of `COc1cc(-c2[nH]c3ccc(C4CCN(C5CCOCC5)CC4)cc3c2C(C)C)nn2ncnc12` [Example 692, 6-(3-isopropyl-5-(1-(tetrahydro-2H-pyran-4-yl)piperidin-4-yl)-1H-indol-2-yl)-8-methoxy-[1,2,4]triazolo[1,5-b]pyridazine], the IC50 is below 100 nM against human TLR7, 1000 to 50000 nM against human TLR9 and below 100 nM on human TLR8.
`Cc1cc(-c2[nH]c3ccc(C4CCN(CCCS(C)(=O)=O)CC4)cc3c2C(C)C)cn2nnnc12` [Example 787, 6-(3-isopropyl-5-(1-(3-(methylsulfonyl)propyl)piperidin-4-yl)-1H-indol-2-yl)-8-methyltetrazolo[1,5-a]pyridine]: the half-inhibitory concentration (IC50) was below 100 nM on human TLR7, 1000 to 50000 nM against human TLR9 and below 100 nM at human TLR8.
Consider `Cc1cc(-c2[nH]c3ccc(C4CCN(C(=O)CCN5CCCCC5)CC4)cc3c2C(C)C)cn2nnnc12` [Example 629, 1-(4-(3-isopropyl-2-(8-methyltetrazolo[1,5-a]pyridin-6-yl)-1H-indol-5-yl)piperidin-1-yl)-3-(piperidin-1-yl)propan-1-one], for which the IC50 at human TLR7 is below 100 nM; at human TLR9 it was 1000 to 50000 nM; against human TLR8, below 100 nM.
For `Cc1cn2cc(-c3[nH]c4ccc(C5CCNCC5)cc4c3C(C)C)cc(C(F)(F)F)c2n1` [Example 137, 6-(3-isopropyl-5-(piperidin-4-yl)-1H-indol-2-yl)-2-methyl-8-(trifluoromethyl)imidazo[1,2-a]pyridine], the IC50 against human TLR7 is below 100 nM; against human TLR9 it was 100 to 1000 nM; at human TLR8, 100 to 1000 nM.
Consider `CC(C)c1c(-c2ccnc3[nH]ncc23)[nH]c2cc(F)c(C3CCN(CC4CCN(C(C)C)CC4)CC3)cc12` [Example 966, 4-(6-fluoro-3-isopropyl-5-(1-((1-isopropylpiperidin-4-yl)methyl)piperidin-4-yl)-1H-indol-2-yl)-1H-pyrazolo[3,4-b]pyridine], for which the IC50 on human TLR7, at human TLR9 and at human TLR8 was below 100 nM in each case.
On to `Cc1c(-c2ccnc3[nH]cc(N)c23)[nH]c2ccc(C3CCNCC3)cc12` [Example 211, 4-(3-methyl-5-(piperidin-4-yl)-1H-indol-2-yl)-1H-pyrrolo[2,3-b]pyridin-3-amine], for which the concentration for half-maximal inhibition (IC50) against human TLR7, against human TLR9 and against human TLR8 was 1000 to 50000 nM each time.
As to `CC(C)c1c(-c2cnc3ncnn3c2)[nH]c2ccc(C3CCN(CC(C)(C)O)CC3)cc12` [Example 773, 1-(4-(2-([1,2,4]triazolo[1,5-a]pyrimidin-6-yl)-3-isopropyl-1H-indol-5-yl)piperidin-1-yl)-2-methylpropan-2-ol], the IC50 on human TLR7 was 100 to 1000 nM; at human TLR9, 1000 to 50000 nM; against human TLR8 it was below 100 nM.
For the compound `CC(C)c1c(-c2cnc3nccn3c2)[nH]c2ccc(C3CCNCC3)cc12` [Example 200, 6-(3-isopropyl-5-(piperidin-4-yl)-1H-indol-2-yl)imidazo[1,2-a]pyrimidine], the IC50 at human TLR7, at human TLR9 and against human TLR8 was 100 to 1000 nM each time.
`Cc1ccnc2c1c(-c1[nH]c3ccc(C4CCNCC4)cc3c1C(C)C)cn2C` [Example 35, 3-(3-isopropyl-5-(piperidin-4-yl)-1H-indol-2-yl)-1,4-dimethyl-1H-pyrrolo[2,3-b]pyridine]: the IC50 on human TLR7 is below 100 nM; against human TLR9, 1000 to 50000 nM; against human TLR8 it was below 100 nM.
